Results reported in ChEMBL document CHEMBL1909046, “DrugMatrix in vitro pharmacology data”.

How the values were obtained:
[1] = target: T1, Substance-K receptor (Homo sapiens, UniProt P21452); format: cell membranes, CHO, Membrane; conditions: cho; further: in other assays of this panel Not Active means under 50% inhibition at 10 µM
T1 sequence (P21452 whole entry): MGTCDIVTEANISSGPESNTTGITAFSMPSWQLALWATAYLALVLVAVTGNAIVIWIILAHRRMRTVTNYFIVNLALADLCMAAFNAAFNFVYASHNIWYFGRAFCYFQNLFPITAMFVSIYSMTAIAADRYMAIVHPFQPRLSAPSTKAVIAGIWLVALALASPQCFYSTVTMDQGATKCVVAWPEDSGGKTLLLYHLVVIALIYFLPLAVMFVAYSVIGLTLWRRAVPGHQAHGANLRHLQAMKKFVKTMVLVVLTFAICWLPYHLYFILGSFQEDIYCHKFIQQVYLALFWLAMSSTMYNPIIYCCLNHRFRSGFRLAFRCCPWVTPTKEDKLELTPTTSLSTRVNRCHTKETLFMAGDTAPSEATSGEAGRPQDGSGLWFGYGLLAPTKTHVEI

[2] = target: T2, Thromboxane-A synthase (Homo sapiens, UniProt P24557); experiment: biochemical; format: tissue-based, Platelet; conditions: platelet;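 further: enzyme inhibition assay with PGH2 supplied as substrate; in other assays of this panel Not Active means under 50% inhibition at 10 µM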
T2 sequence (P24557 whole entry): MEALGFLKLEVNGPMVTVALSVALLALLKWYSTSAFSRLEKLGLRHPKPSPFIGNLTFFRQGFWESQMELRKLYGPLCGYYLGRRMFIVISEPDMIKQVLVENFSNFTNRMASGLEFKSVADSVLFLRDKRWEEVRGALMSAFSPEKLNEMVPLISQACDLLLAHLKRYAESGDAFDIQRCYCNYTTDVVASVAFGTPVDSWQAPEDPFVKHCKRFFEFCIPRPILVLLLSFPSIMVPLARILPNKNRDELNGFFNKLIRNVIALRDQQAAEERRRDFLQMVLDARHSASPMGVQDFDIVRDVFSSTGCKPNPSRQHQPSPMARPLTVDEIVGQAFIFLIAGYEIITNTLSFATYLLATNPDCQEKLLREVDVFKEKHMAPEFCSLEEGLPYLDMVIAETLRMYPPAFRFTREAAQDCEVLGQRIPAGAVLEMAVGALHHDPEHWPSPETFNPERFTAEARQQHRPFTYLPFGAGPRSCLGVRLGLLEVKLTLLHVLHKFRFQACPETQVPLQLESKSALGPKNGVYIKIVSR

[3] = DRUGMATRIX: Nicotinic Acetylcholine radioligand binding (ligand: [125I] Epibatidine); format: cell membranes, Membrane; conditions: imr-32; Not Active = under 50% inhibition at 10 µM
[4] = target: cGMP-specific 3',5'-cyclic phosphodiesterase (Homo sapiens, UniProt O76074); experiment: DRUGMATRIX: Phosphodiesterase PDE5 enzyme inhibition (substrate: [3H]cGMP + cGMP); format: tissue-based, Platelet; conditions: platelet; Not Active = under 50% inhibition at 10 µM
[5] = target: Melanocortin receptor 3 (Homo sapiens, UniProt P41968); format: cell membranes, Membrane; conditions: hek293; further: in other assays of this panel Not Active means under 50% inhibition at 10 µM
Sequence of Melanocortin receptor 3 (P41968 whole entry): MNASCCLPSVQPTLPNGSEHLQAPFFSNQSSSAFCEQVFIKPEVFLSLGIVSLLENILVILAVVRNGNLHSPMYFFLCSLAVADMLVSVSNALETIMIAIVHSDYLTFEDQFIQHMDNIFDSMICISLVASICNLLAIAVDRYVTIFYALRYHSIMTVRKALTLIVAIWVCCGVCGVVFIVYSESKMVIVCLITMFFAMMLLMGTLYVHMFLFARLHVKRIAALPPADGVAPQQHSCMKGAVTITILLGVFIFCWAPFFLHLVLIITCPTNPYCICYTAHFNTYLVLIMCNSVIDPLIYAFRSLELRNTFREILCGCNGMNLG

[6] = target: T3, Cytochrome P450 1A2 (Homo sapiens, UniProt P05177); conditions: bti-tn-5b1-4; further: in other assays of this panel Not Active means under 50% inhibition at 10 µM
T3 sequence (P05177 whole entry): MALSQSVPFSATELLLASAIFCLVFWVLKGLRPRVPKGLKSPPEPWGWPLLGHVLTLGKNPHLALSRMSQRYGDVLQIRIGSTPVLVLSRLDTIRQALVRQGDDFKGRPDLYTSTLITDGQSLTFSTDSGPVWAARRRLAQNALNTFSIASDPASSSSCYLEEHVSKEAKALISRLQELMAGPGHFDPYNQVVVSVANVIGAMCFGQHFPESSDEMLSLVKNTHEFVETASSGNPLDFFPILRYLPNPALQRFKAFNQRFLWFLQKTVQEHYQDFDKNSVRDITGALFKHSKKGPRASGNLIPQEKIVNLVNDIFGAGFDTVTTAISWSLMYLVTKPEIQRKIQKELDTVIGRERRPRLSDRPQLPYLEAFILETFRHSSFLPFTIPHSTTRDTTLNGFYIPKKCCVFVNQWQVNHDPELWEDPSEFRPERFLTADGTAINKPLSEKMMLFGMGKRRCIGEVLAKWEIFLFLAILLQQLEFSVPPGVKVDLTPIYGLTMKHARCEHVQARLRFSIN

[7] = DRUGMATRIX: ATPase, Na+/K+ enzyme inhibition (substrate: ATP); format: tissue-based, Sus scrofa, Heart; conditions: Not Active = under 50% inhibition at 10 µM
[8] = target: T4, C-X-C chemokine receptor type 1 (Homo sapiens, UniProt P25024); further: in other assays of this panel Not Active means under 50% inhibition at 10 µM
T4 sequence (P25024 whole entry): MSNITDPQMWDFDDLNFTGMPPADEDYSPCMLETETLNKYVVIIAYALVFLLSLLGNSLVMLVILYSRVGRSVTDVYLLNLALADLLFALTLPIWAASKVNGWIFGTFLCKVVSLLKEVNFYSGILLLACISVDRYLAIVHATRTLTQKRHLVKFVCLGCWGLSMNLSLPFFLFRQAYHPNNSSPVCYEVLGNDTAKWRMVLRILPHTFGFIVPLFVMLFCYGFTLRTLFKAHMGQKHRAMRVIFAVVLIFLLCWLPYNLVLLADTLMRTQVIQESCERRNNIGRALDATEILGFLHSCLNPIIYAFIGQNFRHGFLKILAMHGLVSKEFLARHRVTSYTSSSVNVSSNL

[9] = target: T5, Cytochrome P450 2A6 (Homo sapiens, UniProt P11509); conditions: bti-tn-5b1-4; further: in other assays of this panel Not Active means under 50% inhibition at 10 µM
T5 sequence (P11509 whole entry): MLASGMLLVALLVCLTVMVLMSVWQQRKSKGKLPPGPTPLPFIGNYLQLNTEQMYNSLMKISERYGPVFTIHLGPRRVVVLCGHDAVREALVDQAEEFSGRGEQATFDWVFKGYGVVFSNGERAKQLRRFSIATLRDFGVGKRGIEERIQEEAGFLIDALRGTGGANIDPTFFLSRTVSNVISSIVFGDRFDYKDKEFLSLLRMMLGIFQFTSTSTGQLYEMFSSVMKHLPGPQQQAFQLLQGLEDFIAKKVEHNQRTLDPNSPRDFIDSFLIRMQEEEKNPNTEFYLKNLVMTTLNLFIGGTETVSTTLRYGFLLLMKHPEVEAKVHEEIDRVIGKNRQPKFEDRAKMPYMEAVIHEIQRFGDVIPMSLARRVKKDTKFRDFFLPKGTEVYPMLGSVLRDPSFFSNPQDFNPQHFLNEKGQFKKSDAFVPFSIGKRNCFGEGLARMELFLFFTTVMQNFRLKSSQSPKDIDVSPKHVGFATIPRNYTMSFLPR

[10] = target: Protein phosphatase 3 catalytic subunit alpha (Homo sapiens, UniProt Q08209); parameters: species or system Escherichia coli

CC1COc2c(N3CCN(C)CC3)c(F)cc3c(=O)c(C(=O)O)cn1c23 (stereo not drawn) [OFLOXACIN]
Not Active: IC50 [1] | IC50 [2] | IC50 [3] | Ki [3] | IC50 [4] | IC50 [5] | IC50 [6] | Ki [6] | IC50 [7] | Ki [7] | IC50 [8] | IC50 [9] | Ki [9] | IC50 [10]

Oc1cccc2cccnc12 [OXYQUINOLINE]
Not Active: IC50 [1] | IC50 [2] | IC50 [3] | Ki [3] | IC50 [4] | IC50 [5] | IC50 [6] | Ki [6] | IC50 [7] | Ki [7] | IC50 [8] | IC50 [9] | Ki [9] | IC50 [10]

CN(C)[C@@H]1C(O)=C(C(N)=O)C(=O)[C@@]2(O)C(O)=C3C(=O)c4c(O)cccc4[C@@](C)(O)[C@H]3[C@H](O)[C@@H]12 [OXYTETRACYCLINE]
Not Active: IC50 [1] | IC50 [2] | IC50 [3] | Ki [3] | IC50 [4] | IC50 [5] | IC50 [6] | Ki [6] | IC50 [7] | Ki [7] | IC50 [8] | IC50 [9] | Ki [9] | IC50 [10]

Fc1ccc([C@@H]2CCNC[C@H]2COc2ccc3c(c2)OCO3)cc1 [PAROXETINE]
Not Active: IC50 [1] | IC50 [2] | IC50 [3] | Ki [3] | IC50 [4] | IC50 [5] | IC50 [6] | Ki [6] | IC50 [7] | Ki [7] | IC50 [8] | IC50 [9] | Ki [9] | IC50 [10]

CC(C)(S)[C@@H](N)C(=O)O [PENICILLAMINE]
Not Active: IC50 [1] | IC50 [2] | IC50 [3] | Ki [3] | IC50 [4] | IC50 [5] | IC50 [6] | Ki [6] | IC50 [7] | Ki [7] | IC50 [8] | IC50 [9] | Ki [9] | IC50 [10]

CC(=O)CCCCn1c(=O)c2c(ncn2C)n(C)c1=O [PENTOXIFYLLINE]
Not Active: IC50 [1] | IC50 [2] | IC50 [3] | Ki [3] | IC50 [4] | IC50 [5] | IC50 [6] | Ki [6] | IC50 [7] | Ki [7] | IC50 [8] | IC50 [9] | Ki [9] | IC50 [10]

O=C1NC(=O)C(c2ccccc2)(c2ccccc2)N1 [PHENYTOIN]
Not Active: IC50 [1] | IC50 [2] | IC50 [3] | Ki [3] | IC50 [4] | IC50 [5] | IC50 [6] | Ki [6] | IC50 [7] | Ki [7] | IC50 [8] | IC50 [9] | Ki [9] | IC50 [10]
